Source: ChEMBL document CHEMBL6134889, “ByeTAC: Bypassing E-Ligase-Targeting Chimeras for Direct Proteasome Degradation” (J Med Chem, 2025)
pIC50: −log10 of the molar value. Each block holds one molecule with its values, some of them ahead of it. Calls of active or inactive are those of the source. The calls are words filed in the database; no cut-off is given here.

Key:
[1] = target: T1, Proteasomal ubiquitin receptor ADRM1/Bromodomain-containing protein 4 (Homo sapiens, UniProt O60885+Q16186); assay: Induction of BRD4 degradation in human Ramos cells at 10 to 1000 nM incubated for 18 hrs by Western blot analysis; assay type: cell-based; conditions: dose 10-1000 nM
[2] = target: T1, Proteasomal ubiquitin receptor ADRM1/Bromodomain-containing protein 4; assay: BYETAC activity at 26S proteasome subunit Rpn13/BRD4 in human Ramos cells assessed as induction of BRD4 degradation by measuring remaining activity at 500 nM incubated for 18 hrs by Western blot analysis (reference value: 100 %); assay type: cell-based
[3] = target: T1, Proteasomal ubiquitin receptor ADRM1/Bromodomain-containing protein 4; assay: BYETAC activity at 26S proteasome subunit Rpn13/BRD4 in human Ramos cells assessed as induction of BRD4 degradation by measuring remaining activity at 100 nM incubated for 18 hrs by Western blot analysis (reference value: 100 %); assay type: cell-based
[4] = target: T1, Proteasomal ubiquitin receptor ADRM1/Bromodomain-containing protein 4; assay: BYETAC activity at 26S proteasome subunit Rpn13/BRD4 in human Ramos cells assessed as induction of BRD4 degradation by measuring remaining activity at 10 nM incubated for 18 hrs by Western blot analysis (reference value: 100 %); assay type: cell-based
[5] = target: T2, Proteasomal ubiquitin receptor ADRM1/Tyrosine-protein kinase BTK (Homo sapiens) (UniProt Q06187+Q16186); assay: BYETAC activity at 26S proteasome subunit Rpn13/BTK in human Ramos cells assessed as induction of BTK degradation by measuring remaining activity at 10 uM incubated for 18 hrs by Western blot analysis (reference value: 100 %); assay type: cell-based
[6] = target: T2, Proteasomal ubiquitin receptor ADRM1/Tyrosine-protein kinase BTK (Homo sapiens); assay: BYETAC activity at 26S proteasome subunit Rpn13/BTK in human Ramos cells assessed as induction of BTK degradation by measuring remaining activity at 25 uM incubated for 18 hrs by Western blot analysis (reference value: 100 %); assay type: cell-based
[7] = target: T2, Proteasomal ubiquitin receptor ADRM1/Tyrosine-protein kinase BTK (Homo sapiens); assay: BYETAC activity at 26S proteasome subunit Rpn13/BTK in human Ramos cells assessed as induction of BTK degradation by measuring remaining activity at 0.5 uM incubated for 18 hrs by Western blot analysis (reference value: 100 %); assay type: cell-based
[8] = target: T2, Proteasomal ubiquitin receptor ADRM1/Tyrosine-protein kinase BTK (Homo sapiens); assay: BYETAC activity at 26S proteasome subunit Rpn13/BTK in human Ramos cells assessed as induction of BTK degradation by measuring remaining activity at 1 uM incubated for 18 hrs by Western blot analysis (reference value: 100 %); assay type: cell-based
[9] = target: T2, Proteasomal ubiquitin receptor ADRM1/Tyrosine-protein kinase BTK (Homo sapiens); assay: BYETAC activity at 26S proteasome subunit Rpn13/BTK in human Ramos cells assessed as induction of BTK degradation at 1 to 25 uM incubated for 18 hrs by Western blot analysis; assay type: cell-based; conditions: dose 1-25 µM
[10] = target: T1, Proteasomal ubiquitin receptor ADRM1/Bromodomain-containing protein 4; assay: BYETAC activity at 26S proteasome subunit Rpn13/BRD4 in human Ramos cells assessed as induction of BRD4 degradation by measuring remaining activity at 100 nM incubated for 18 hrs in presence of TAK-243 by Western blot analysis relative to control; assay type: cell-based
[11] = target: T1, Proteasomal ubiquitin receptor ADRM1/Bromodomain-containing protein 4; assay: BYETAC activity at 26S proteasome subunit Rpn13/BRD4 in human U87 cells assessed as induction of BRD4 degradation by measuring remaining activity at 500 nM incubated for 18 hrs by Western blot analysis (reference value: 100 %); assay type: cell-based
[12] = target: T1, Proteasomal ubiquitin receptor ADRM1/Bromodomain-containing protein 4; assay: BYETAC activity at 26S proteasome subunit Rpn13/BRD4 in human U87 cells assessed as induction of BRD4 degradation by measuring remaining activity at 10 nM incubated for 18 hrs by Western blot analysis (reference value: 100 %); assay type: cell-based
[13] = target: T1, Proteasomal ubiquitin receptor ADRM1/Bromodomain-containing protein 4; assay: BYETAC activity at 26S proteasome subunit Rpn13/BRD4 in human U87 cells assessed as induction of BRD4 degradation by measuring remaining activity at 100 nM incubated for 18 hrs by Western blot analysis (reference value: 100 %); assay type: cell-based
[14] = target: T1, Proteasomal ubiquitin receptor ADRM1/Bromodomain-containing protein 4; assay: BYETAC activity at 26S proteasome subunit Rpn13/BRD4 in human Raji cells assessed as induction of BRD4 degradation by measuring remaining activity at 500 nM incubated for 18 hrs by Western blot analysis (reference value: 100 %); assay type: cell-based
[15] = target: T1, Proteasomal ubiquitin receptor ADRM1/Bromodomain-containing protein 4; assay: BYETAC activity at 26S proteasome subunit Rpn13/BRD4 in human Ramos cells assessed as induction of BRD4 degradation at 100 nM incubated for 18 hrs in presence of MG132 by Western blot analysis; assay type: cell-based
[16] = target: T1, Proteasomal ubiquitin receptor ADRM1/Bromodomain-containing protein 4; assay: Binding affinity to 26S proteasome subunit Rpn13/BRD4 in human Ramos cells assessed as ternary complex formation at 5 uM incubated for 3 hrs by co-immunoprecipitation analysis; assay type: cell-based
[17] = target: T1, Proteasomal ubiquitin receptor ADRM1/Bromodomain-containing protein 4; assay: Induction of BRD4 degradation in human U87 cells transfected with Rpn-13 siRNA at 100 nM incubated for 18 hrs by Western blot analysis; assay type: cell-based
[18] = tested on: Ramos; assay: Antiproliferative activity against human Ramos cells assessed as reduction in cell viability incubated for 48 hrs; assay type: functional, cell-based
[19] = target: T1, Proteasomal ubiquitin receptor ADRM1/Bromodomain-containing protein 4; assay: BYETAC activity at 26S proteasome subunit Rpn13/BRD4 in human Ramos cells assessed as induction of BRD4 degradation at 500 nM preincubated with TCL1 for 1 hrs followed by compound addition and measured after 18 hrs by competitive Western blot analysis; assay type: cell-based
[20] = target: T1, Proteasomal ubiquitin receptor ADRM1/Bromodomain-containing protein 4; assay: BYETAC activity at 26S proteasome subunit Rpn13/BRD4 in human Raji cells assessed as induction of BRD4 degradation by measuring remaining activity at 10 nM incubated for 18 hrs by Western blot analysis (reference value: 100 %); assay type: cell-based
[21] = target: Proteasomal ubiquitin receptor ADRM1 (Homo sapiens) (UniProt Q16186); assay: Induction of Rpn-13 stabilization in human Ramos cells assessed as increase in Rpn-13 level at 5 uM incubated for 3 hrs by co-immunoprecipitation analysis; assay type: cell-based
[22] = target: T1, Proteasomal ubiquitin receptor ADRM1/Bromodomain-containing protein 4; assay: BYETAC activity at 26S proteasome subunit Rpn13/BRD4 in human Raji cells assessed as induction of BRD4 degradation by measuring remaining activity at 100 nM incubated for 18 hrs by Western blot analysis (reference value: 100 %); assay type: cell-based
[23] = target: Proteasomal ubiquitin receptor ADRM1/Bromodomain-containing protein 3 (Homo sapiens) (UniProt Q15059+Q16186); assay: BYETAC activity at 26S proteasome subunit Rpn13/BRD3 in human Ramos cells assessed as induction of BRD3 degradation at 100 nM incubated for 18 hrs by Western blot analysis; assay type: cell-based
[24] = target: Proteasomal ubiquitin receptor ADRM1/Bromodomain-containing protein 2 (Homo sapiens) (UniProt P25440+Q16186); assay: BYETAC activity at 26S proteasome subunit Rpn13/BRD2 in human Ramos cells assessed as induction of BRD2 degradation at 100 nM incubated for 18 hrs by Western blot analysis; assay type: cell-based
[25] = target: T1, Proteasomal ubiquitin receptor ADRM1/Bromodomain-containing protein 4; assay: BYETAC activity at 26S proteasome subunit Rpn13/BRD4 in human Ramos cells assessed as induction of BRD4 degradation at 500 nM preincubated with JQ1 for 1 hrs followed by compound addition and measured after 18 hrs by competitive Western blot analysis; assay type: cell-based
[26] = target: T1, Proteasomal ubiquitin receptor ADRM1/Bromodomain-containing protein 4; assay: BYETAC activity at 26S proteasome subunit Rpn13/BRD4 in human U87 cells assessed as induction of BRD4 degradation at 500 nM measured up to 72 hrs by Western blot analysis; assay type: cell-based
[27] = target: T1, Proteasomal ubiquitin receptor ADRM1/Bromodomain-containing protein 4; assay: BYETAC activity at 26S proteasome subunit Rpn13/BRD4 in human Ramos cells assessed as induction of BRD4 degradation incubated for 18 hrs by Western blot analysis; assay type: cell-based
[28] = target: Proteasomal ubiquitin receptor ADRM1/Glycogen synthase kinase-3 beta (Homo sapiens) (UniProt P49841+Q16186); assay: Halo-BYETAC activity at 26S proteasome subunit Rpn13/Halo-tagged GSK3beta (unknown origin) transfected in human U87 cells assessed as induction of Halo-tagged GSK3beta degradation at 1 to 10 uM incubated for 18 hrs by Western blot analysis; assay type: cell-based; conditions: dose 1-10 µM

- Activity [10]: 40%
- Activity [11]: 20%
- Activity [12]: 66%
- Activity [13]: 36%
- Activity [14]: 62%
- Activity [15]: inactive
- Activity [16]: Active
- Activity [17]: inactive
- pIC50 [18]: 7.52
- Activity [19]: inactive
- Activity [20]: 95%
- Activity [21]: Active
- Activity [22]: 72%
- Activity [2]: 33%
- Activity [3]: 55%
- Activity [23]: Active
- Activity [24]: Active
- Activity [25]: inactive
- Activity [26]: Active
- Activity [4]: 91%
- DC50 [27]: ~500 nM
Compound: Cc1sc2c(c1C)C(c1ccc(Cl)cc1)=N[C@@H](CC(=O)NCCOCCOCCOCCOCCNC(=O)CC1Sc3nnc(Cc4ccc(Br)cc4)n3N=C1c1ccc(Cl)cc1)c1nnc(C)n1-2 (stereo not given in full)

- Activity [2]: 60%
- Activity [3]: 87%
- Activity [4]: 92%
Compound: Cc1sc2c(c1C)C(c1ccc(Cl)cc1)=N[C@@H](CC(=O)NCCOCCOCCOCCOCCOCCNC(=O)CC1Sc3nnc(Cc4ccc(Br)cc4)n3N=C1c1ccc(Cl)cc1)c1nnc(C)n1-2 (stereo not given in full)

- Activity [11]: 36%
- Activity [12]: 83%
- Activity [13]: 53%
- Activity [14]: 68%
- Activity [20]: 78%
- Activity [22]: 77%
- Activity [2]: 35%
- Activity [3]: 69%
- Activity [4]: 111%
- DC50 [27]: ~500 nM
Compound: Cc1sc2c(c1C)C(c1ccc(Cl)cc1)=N[C@@H](CC(=O)NCCOCCOCCOCCNC(=O)CC1Sc3nnc(Cc4ccc(Br)cc4)n3N=C1c1ccc(Cl)cc1)c1nnc(C)n1-2 (stereo not given in full)

The next lines start with the molecule.

Compound: O=C(O)CC1Sc2nnc(Cc3ccc(Br)cc3)n2N=C1c1ccc(Cl)cc1 (stereo not given)
- Activity [1]: inactive

Compound: Cc1sc2c(c1C)C(c1ccc(Cl)cc1)=N[C@@H](CC(=O)NCCOCCOCCOCCOCCOCCOCCOCCNC(=O)CC1Sc3nnc(Cc4ccc(Br)cc4)n3N=C1c1ccc(Cl)cc1)c1nnc(C)n1-2 (stereo not given in full)
- Activity [2]: 80%
- Activity [3]: 100%
- Activity [4]: 107%

Compound: Nc1ncnc2c1c(-c1ccc(Oc3ccccc3)cc1)nn2[C@H]1CCCN(C(=O)CCC(=O)NCCOCCOCCOCCOCCOCCOCCOCCOCCNC(=O)CC2Sc3nnc(Cc4ccc(Br)cc4)n3N=C2c2ccc(Cl)cc2)C1 (stereo not given in full)
- Activity [5]: 3%
- Activity [6]: 6%
- Activity [7]: 97%
- Activity [8]: 72%

Compound: Nc1ncnc2c1c(-c1ccc(Oc3ccccc3)cc1)nn2[C@H]1CCCN(C(=O)COCCOCCOCCOCCNC(=O)CC2Sc3nnc(Cc4ccc(Br)cc4)n3N=C2c2ccc(Cl)cc2)C1 (stereo not given in full)
- Activity [9]: inactive

Compound: Cc1sc2c(c1C)C(c1ccc(Cl)cc1)=N[C@@H](CC(=O)Nc1ccc(OCCOCCOCCOCCNc3cccc4c3C(=O)N(C3CCC(=O)NC3=O)C4=O)cc1)c1nnc(C)n1-2 (stereo not given in full)
- pIC50 [18]: 8.72

Compound: ClCCCCCCNCCOCCOCCNCC1Sc2nnc(Cc3ccc(Br)cc3)n2N=C1c1ccc(Cl)cc1 (stereo not given)
- Activity [28]: Active
